Patent US12655116B2, “Substituted isophthalic acid diamides” (Bayer Aktiengesellschaft, priority 2020, dated 2026)

Assays:
ABUTH [1] = assay: Pre-emergence herbicidal action against ABUTH; assay type: in vivo, Abutilon theophrasti; conditions: Abutilon theophrasti, 504 h; for pest or weed control at 80 g/ha: scored visually after 3 weeks vs untreated controls (100% = plants have died, 0% = like control plants); for pest or weed control at 320 g/ha: Dosage: 320 g/ha, scored visually after 3 weeks; for pest or weed control at 320 g/ha / pest or weed control at 20 g/ha: 100% = plants have died, 0% = like control plants; for pest or weed control at 20 g/ha: dosage 20 g/ha, scored visually after 3 weeks vs untreated controls, read-out: Pre-emergence action against ABUTH (herbicidal activity in percent)
In short: (§1)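 Visual rating at 3 weeks vs untreated pots; 0–100% scale, 100% = plants died. Treatment: aqueous WP/EC spray onto covering soil, 600–800 l/ha, 0.2% wetter, seeds in sandy loam.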

LOLRI = assay: Pre-emergence herbicidal action against LOLRI; assay type: in vivo, Lolium rigidum; conditions: Lolium rigidum, 504 h
In short: as §1

DIGSA [2] = assay: Pre-emergence herbicidal action against DIGSA; assay type: in vivo, Digitaria sanguinalis; conditions: Digitaria sanguinalis, 504 h; for pest or weed control at 80 g/ha: dosage 80 g/ha; for pest or weed control at 320 g/ha: dosage 320 g/ha
In short: as §1

ABUTH [3] = assay: Post-emergence herbicidal action against ABUTH; assay type: in vivo, Abutilon theophrasti; conditions: Abutilon theophrasti, 504 h, visual assessment about 3 weeks after treatment vs untreated controls; for pest or weed control at 20 g/ha: dosage 20 g/ha; for pest or weed control at 80 g/ha: dosage 80 g/ha; for pest or weed control at 5 g/ha: dosage 5 g/ha
In short: (§2)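 Weeds in sandy loam soil received a post-emergence spray at the one-leaf stage. Compounds were applied as WP or EC in water, 600 to 800 l/ha, with 0.2% wetting agent. Activity in % was judged visually after roughly 3 weeks against untreated plants.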

PHBPU [4] = assay: Post-emergence herbicidal action against PHBPU; assay type: in vivo, Pharbitis purpurea; conditions: Ipomoea purpurea, 504 h; for pest or weed control at 20 g/ha: dosage 20 g/ha; for pest or weed control at 80 g/ha: dosage 80 g/ha
In short: as §2

DIGSA [5] = assay: Post-emergence herbicidal action against DIGSA; assay type: in vivo, Digitaria sanguinalis; conditions: Digitaria sanguinalis, 504 h
In short: as §2

harmful plants = assay: Comparative experiments: herbicidal post-emergence action versus compounds known from D1 (WO 2012/028579 A1); assay type: in vivo; design: key to Herbicidal action against ALOMY / Herbicidal action against AVEFA / Herbicidal action against LOLRI / Herbicidal action against MATIN / Herbicidal action against HORMU / Herbicidal action against ECHCG / Herbicidal action against SETVI / Herbicidal action against ABUTH / Herbicidal action against STEME / Herbicidal action against VIOTR / Herbicidal action against AMARE: % herbicidal action: 100 = plants died, 0 = like untreated control; conditions: 20 g a.i./ha
Description: Seeds of monocotyledonous and dicotyledonous weed and crop plants are laid out in sandy loam soil in wood-fiber pots, covered with soil and cultivated in a greenhouse under good growth conditions. 2 to 3 weeks after sowing, the test plants are treated at the one-leaf stage. The compounds of the invention, formulated in the form of wettable powders (WP) or as emulsion concentrates (EC), are then sprayed onto the green parts of the plants in the form of an aqueous suspension or emulsion at a water application rate equivalent to 600 to 800 l/ha, with addition of 0.2% wetting agent. After the test plants have been left to stand in the greenhouse under optimal growth conditions for about 3 weeks, the action of the preparations is assessed visually in comparison to untreated controls (herbicidal action in percent (%): 100% activity=the plants have died, 0% activity=like control plants). […] The tables below illustrate, in an illustrative manner, the post-emergence herbicidal action of the compounds of the invention, the herbicidal activity being stated in percent. In the experiments that follow, herbicidal action of numerous inventive compounds and the structurally closest compounds known from D1 (WO 2012/028579 A1) were compared under the above-specified conditions by the pre-emergence and post-emergence method. The example numbers given in the tables relate to the compounds disclosed in the respective documents.

PHBPU [6] = assay: Pre-emergence herbicidal action against PHBPU; assay type: in vivo, Pharbitis purpurea; conditions: Ipomoea purpurea, 504 h; for pest or weed control at 320 g/ha: dosage 320 g/ha
In short: as §1

CYPES = assay: Pre-emergence herbicidal action against CYPES; assay type: in vivo; conditions: Cyperus esculentus, 504 h; for pest or weed control at 80 g/ha: scored visually after 3 weeks, 100% = plants have died, 0% = like control plants
Excerpt: Seeds of monocotyledonous and dicotyledonous weed plants and crop plants are laid out in sandy loam soil in wood-fiber pots and covered with soil. The compounds of the invention, formulated in the form of wettable powders (WP) or as emulsion concentrates (EC), are then applied to the surface of the covering soil in the form of an aqueous suspension or emulsion at a water application rate equivalent to 600 to 800 l/ha, with addition of 0.2% wetting agent. After the treatment, the pots are placed in a greenhouse and kept under good growth conditions for the trial plants. The damage to the test plants is scored visually after a test period of 3 weeks by comparison with untreated controls (herbicidal activity in percent (%): 100% activity=the plants have died, 0% activity=like control plants). […] The tables below illustrate, in an illustrative manner, the post-emergence herbicidal action of the compounds of the invention, the herbicidal activity being stated in percent.

Compound | pest or weed control at 80 g/ha (ABUTH [1]) [%] | pest or weed control at 320 g/ha (ABUTH [1]) [%] | pest or weed control at 320 g/ha (LOLRI) [%] | pest or weed control at 80 g/ha (DIGSA [2]) [%] | pest or weed control at 320 g/ha (DIGSA [2]) [%] | pest or weed control at 20 g/ha (ABUTH [3]) [%] | pest or weed control at 80 g/ha (ABUTH [3]) [%] | pest or weed control at 20 g/ha (PHBPU [4]) [%] | pest or weed control at 80 g/ha (PHBPU [4]) [%] | pest or weed control at 20 g/ha (DIGSA [5]) [%] | pest or weed control at 80 g/ha (DIGSA [5]) [%] | Herbicidal action against ALOMY (harmful plants) | Herbicidal action against AVEFA (harmful plants) | Herbicidal action against MATIN (harmful plants) | Herbicidal action against PHBPU (harmful plants) | pest or weed control at 20 g/ha (ABUTH [1]) [%] | pest or weed control at 320 g/ha (PHBPU [6]) [%] | pest or weed control at 80 g/ha (CYPES) [%] | pest or weed control at 320 g/ha (CYPES) [%] | pest or weed control at 5 g/ha (ABUTH [3]) [%] | also measured
CNC(=O)c1c(C(F)F)ccc(C(=O)Nc2nnnn2C)c1Cl [Example 1-147] | 90 | 100 | 100 | 100 | 100 | 90 | 90 | 80 | 90 | 90 | 90 | 80 | 90 | 100 | 80 |  |  |  |  |  | Herbicidal action against POLCO (harmful plants; POLCO): 90; Herbicidal action against VIOTR (harmful plants; VIOTR): 70
CCn1nnnc1NC(=O)c1ccc(C(F)F)c(C(=O)NC)c1Cl [Example 2-147] | 100 | 100 | 90 | 100 | 100 | 90 | 90 |  | 80 | 90 | 90 | 80 | 90 | 100 | 70 |  |  |  |  |  | Herbicidal action against HORMU (harmful plants; HORMU): 80; Herbicidal action against LOLRI (harmful plants; LOLRI): 70
CCn1nnnc1NC(=O)c1ccc(C(F)(F)F)c(C(=O)NC(C)=O)c1Cl [Example 2-337] | 100 | 100 | 90 | 100 | 100 | 100 | 100 |  | 80 |  | 90 |  |  |  |  | 100 | 90 |  |  |  | pest or weed control at 80 g/ha (LOLRI; 80 g/ha): 80%; pest or weed control at 20 g/ha (DIGSA [2]; dosage 20 g/ha): 90%
CCn1nnnc1NC(=O)c1ccc(C(F)(F)F)c(C(N)=O)c1Cl [Example 2-338] | 100 | 100 | 100 |  |  | 100 | 100 |  | 90 |  |  |  |  |  |  | 90 | 80 | 90 | 100 | 100 | 
CCCn1nnnc1NC(=O)c1ccc(C(F)(F)F)c(C(=O)NC)c1Cl [Example 3-129] | 100 | 100 | 100 |  |  | 100 | 100 | 90 | 100 |  |  |  |  |  |  | 100 | 100 | 100 | 100 | 100 | pest or weed control at 20 g/ha (PHBPU [6]; dosage 20 g/ha): 80%; pest or weed control at 80 g/ha (PHBPU [6]; dosage 80 g/ha): 90%
CCCn1nnnc1NC(=O)c1ccc(C(F)(F)F)c(C(N)=O)c1Cl [Example 3-338] | 100 | 100 |  |  |  | 90 | 100 | 80 | 90 |  |  |  |  |  |  | 90 | 100 | 90 | 90 | 90 | 
